Assay results reported in ChEMBL document CHEMBL1909046, “DrugMatrix in vitro pharmacology data”.

Key:
[1] = molecular target: T1, Calcitonin receptor (Homo sapiens, UniProt P30988); type: cell membranes, Membrane; settings: t47d; note: in other assays of this panel Not Active means under 50% inhibition at 10 µM
T1 sequence (P30988 whole entry): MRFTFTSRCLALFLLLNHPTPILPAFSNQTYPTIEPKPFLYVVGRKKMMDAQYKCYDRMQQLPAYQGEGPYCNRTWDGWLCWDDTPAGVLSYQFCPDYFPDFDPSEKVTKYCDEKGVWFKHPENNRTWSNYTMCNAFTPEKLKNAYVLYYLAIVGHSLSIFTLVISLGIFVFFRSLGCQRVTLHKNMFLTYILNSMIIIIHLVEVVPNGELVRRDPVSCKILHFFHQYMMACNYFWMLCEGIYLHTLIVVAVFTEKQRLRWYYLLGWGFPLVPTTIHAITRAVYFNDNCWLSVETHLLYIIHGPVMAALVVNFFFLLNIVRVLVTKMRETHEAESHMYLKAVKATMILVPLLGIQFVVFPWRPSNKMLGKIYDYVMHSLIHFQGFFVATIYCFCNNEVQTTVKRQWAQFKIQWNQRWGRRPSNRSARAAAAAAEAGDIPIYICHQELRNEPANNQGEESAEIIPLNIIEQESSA

[2] = molecular target: T2, Nitric oxide synthase, inducible (Mus musculus, UniProt P29477); set-up: species or system Escherichia coli;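 note: inhibition of iNOS enzyme activity measured with L-arginine as substrate; in other assays of this panel Not Active means under 50% inhibition at 10 µM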
T2 sequence (P29477 whole entry): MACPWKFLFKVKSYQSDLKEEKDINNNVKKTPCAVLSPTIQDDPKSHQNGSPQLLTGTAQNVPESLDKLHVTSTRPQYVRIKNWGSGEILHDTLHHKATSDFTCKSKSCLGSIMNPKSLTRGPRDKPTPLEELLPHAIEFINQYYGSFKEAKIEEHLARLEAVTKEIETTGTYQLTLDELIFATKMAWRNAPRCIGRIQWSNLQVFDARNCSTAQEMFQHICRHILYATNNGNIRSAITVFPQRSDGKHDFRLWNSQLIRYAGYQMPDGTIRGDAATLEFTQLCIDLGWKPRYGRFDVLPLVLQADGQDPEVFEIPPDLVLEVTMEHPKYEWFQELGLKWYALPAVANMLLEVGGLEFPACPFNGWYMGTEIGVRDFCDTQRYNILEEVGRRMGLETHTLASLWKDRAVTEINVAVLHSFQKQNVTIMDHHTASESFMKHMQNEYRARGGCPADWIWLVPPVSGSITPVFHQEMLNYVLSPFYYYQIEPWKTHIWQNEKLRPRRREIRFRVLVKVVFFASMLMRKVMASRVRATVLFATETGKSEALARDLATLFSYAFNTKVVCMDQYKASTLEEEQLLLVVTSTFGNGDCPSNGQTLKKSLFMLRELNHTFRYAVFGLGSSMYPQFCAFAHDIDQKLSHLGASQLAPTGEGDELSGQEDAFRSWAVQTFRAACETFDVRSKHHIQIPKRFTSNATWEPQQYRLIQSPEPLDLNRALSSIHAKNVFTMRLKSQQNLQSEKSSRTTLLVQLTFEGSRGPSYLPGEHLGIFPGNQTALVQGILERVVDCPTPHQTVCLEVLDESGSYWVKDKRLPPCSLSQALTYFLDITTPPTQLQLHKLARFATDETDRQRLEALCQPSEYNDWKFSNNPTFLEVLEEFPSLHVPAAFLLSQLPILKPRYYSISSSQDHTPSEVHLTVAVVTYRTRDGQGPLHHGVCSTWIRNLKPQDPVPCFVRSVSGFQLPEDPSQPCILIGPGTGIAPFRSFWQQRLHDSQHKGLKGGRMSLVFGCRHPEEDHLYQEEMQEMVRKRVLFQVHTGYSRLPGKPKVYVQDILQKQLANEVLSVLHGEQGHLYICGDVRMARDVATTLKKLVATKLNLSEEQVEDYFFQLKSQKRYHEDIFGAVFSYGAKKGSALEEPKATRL

[3] = DRUGMATRIX: Phosphodiesterase PDE3 enzyme inhibition (substrate: [3H]cAMP + cAMP); type: tissue-based, Homo sapiens; settings: platelet; Not Active = under 50% inhibition at 10 µM
[4] = molecular target: T3, Angiotensin-converting enzyme (Oryctolagus cuniculus, UniProt P12822); type: tissue-based, Lung;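 note: enzymatic inhibition of angiotensin-converting enzyme measured with FAPGG as the substrate; in other assays of this panel Not Active means under 50% inhibition at 10 µM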
T3 sequence (P12822 whole entry): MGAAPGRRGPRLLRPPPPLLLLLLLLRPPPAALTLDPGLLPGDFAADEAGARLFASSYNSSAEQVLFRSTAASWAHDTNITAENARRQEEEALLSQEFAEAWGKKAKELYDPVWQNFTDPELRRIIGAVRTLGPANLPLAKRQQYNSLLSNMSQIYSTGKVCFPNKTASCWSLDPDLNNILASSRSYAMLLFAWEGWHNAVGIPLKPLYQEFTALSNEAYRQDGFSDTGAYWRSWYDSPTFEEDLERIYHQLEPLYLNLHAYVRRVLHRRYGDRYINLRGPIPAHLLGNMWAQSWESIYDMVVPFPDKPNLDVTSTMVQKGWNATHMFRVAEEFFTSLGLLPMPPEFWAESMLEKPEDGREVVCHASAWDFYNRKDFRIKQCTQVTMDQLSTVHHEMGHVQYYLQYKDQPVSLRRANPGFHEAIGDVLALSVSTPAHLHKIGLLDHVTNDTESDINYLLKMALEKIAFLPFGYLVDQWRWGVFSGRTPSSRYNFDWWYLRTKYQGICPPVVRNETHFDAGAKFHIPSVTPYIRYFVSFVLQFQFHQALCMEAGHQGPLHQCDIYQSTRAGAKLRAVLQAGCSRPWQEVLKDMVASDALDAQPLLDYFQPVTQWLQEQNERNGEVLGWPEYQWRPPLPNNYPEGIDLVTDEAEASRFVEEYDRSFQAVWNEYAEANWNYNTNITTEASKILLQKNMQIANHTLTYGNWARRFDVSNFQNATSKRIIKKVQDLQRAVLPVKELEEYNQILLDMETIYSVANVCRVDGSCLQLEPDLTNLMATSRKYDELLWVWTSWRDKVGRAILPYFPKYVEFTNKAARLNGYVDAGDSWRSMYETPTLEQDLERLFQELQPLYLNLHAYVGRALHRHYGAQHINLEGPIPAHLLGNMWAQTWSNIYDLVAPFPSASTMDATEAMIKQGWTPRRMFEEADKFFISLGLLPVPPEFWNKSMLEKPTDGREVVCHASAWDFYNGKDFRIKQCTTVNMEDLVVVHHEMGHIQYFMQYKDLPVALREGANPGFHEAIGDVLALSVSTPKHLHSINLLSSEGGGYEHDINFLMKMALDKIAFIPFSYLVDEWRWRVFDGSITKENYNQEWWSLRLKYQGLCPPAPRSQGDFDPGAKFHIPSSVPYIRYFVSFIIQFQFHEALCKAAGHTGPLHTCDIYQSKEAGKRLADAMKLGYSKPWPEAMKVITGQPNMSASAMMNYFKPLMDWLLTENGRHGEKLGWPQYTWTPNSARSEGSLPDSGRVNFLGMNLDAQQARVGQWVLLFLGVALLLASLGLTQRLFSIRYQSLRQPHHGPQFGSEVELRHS

[5] = molecular target: Voltage-gated inwardly rectifying potassium channel KCNH2 (Homo sapiens, UniProt Q12809); settings: hek293; note: in other assays of this panel Not Active means under 50% inhibition at 10 µM
Voltage-gated inwardly rectifying potassium channel KCNH2, sequence (Q12809 whole entry): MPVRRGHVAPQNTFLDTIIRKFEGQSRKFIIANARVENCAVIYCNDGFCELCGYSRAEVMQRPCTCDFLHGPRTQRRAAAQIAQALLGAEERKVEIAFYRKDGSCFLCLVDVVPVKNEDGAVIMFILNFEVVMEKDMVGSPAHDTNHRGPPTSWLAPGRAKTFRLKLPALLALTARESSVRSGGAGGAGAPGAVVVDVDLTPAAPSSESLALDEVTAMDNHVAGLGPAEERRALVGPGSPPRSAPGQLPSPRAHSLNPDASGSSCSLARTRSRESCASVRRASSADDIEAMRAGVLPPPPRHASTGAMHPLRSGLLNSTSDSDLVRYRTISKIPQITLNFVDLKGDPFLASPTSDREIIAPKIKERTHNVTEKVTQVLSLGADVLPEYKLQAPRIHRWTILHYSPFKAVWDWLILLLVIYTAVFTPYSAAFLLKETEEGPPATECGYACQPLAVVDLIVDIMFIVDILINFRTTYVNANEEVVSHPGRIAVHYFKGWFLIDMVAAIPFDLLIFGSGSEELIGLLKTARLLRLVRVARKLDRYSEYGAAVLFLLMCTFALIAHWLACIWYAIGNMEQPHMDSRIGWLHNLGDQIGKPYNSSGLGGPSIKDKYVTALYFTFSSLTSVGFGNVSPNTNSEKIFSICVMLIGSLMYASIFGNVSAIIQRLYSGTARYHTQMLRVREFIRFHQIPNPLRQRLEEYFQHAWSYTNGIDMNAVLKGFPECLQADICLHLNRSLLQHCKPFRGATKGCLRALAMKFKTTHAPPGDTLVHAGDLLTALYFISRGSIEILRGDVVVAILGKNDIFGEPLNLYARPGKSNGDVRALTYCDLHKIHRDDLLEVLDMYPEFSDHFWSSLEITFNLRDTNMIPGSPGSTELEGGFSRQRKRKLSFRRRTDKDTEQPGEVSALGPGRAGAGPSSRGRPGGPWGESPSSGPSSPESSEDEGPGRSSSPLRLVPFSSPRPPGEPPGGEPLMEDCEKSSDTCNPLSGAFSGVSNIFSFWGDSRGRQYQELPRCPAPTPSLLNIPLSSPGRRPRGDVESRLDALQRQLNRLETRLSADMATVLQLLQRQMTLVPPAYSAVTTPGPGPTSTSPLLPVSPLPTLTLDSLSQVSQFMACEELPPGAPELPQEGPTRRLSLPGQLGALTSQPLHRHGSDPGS

CNC(=C[N+](=O)[O-])NCCSCc1ccc(CN(C)C)o1 [RANITIDINE]
Not Active: IC50 [1] | IC50 [2] | IC50 [3] | Ki [3] | IC50 [4] | IC50 [5] | Ki [5]

CO[C@H]1/C=C/O[C@@]2(C)Oc3c(C)c(O)c4c(c3C2=O)C2=NC3(CCN(CC(C)C)CC3)NC2=C(NC(=O)/C(C)=C\C=C\[C@H](C)[C@H](O)[C@@H](C)[C@@H](O)[C@@H](C)[C@H](OC(C)=O)[C@@H]1C)C4=O [RIFABUTIN]
Not Active: IC50 [1] | IC50 [2] | IC50 [3] | Ki [3] | IC50 [4] | IC50 [5] | Ki [5]

CC(C)CC(N(C)C)C1(c2ccc(Cl)cc2)CCC1 (stereo not drawn) [SIBUTRAMINE]
Not Active: IC50 [1] | IC50 [2] | IC50 [3] | Ki [3] | IC50 [4] | IC50 [5] | Ki [5]

[H]/N=C(/N)N[C@H]1[C@H](O)[C@@H](O)[C@H](O[C@@H]2O[C@@H](C)[C@](O)(C=O)[C@H]2O[C@@H]2O[C@@H](CO)[C@H](O)[C@@H](O)[C@@H]2NC)[C@@H](N/C(N)=N\[H])[C@@H]1O [STREPTOMYCIN]
Not Active: IC50 [1] | IC50 [2] | IC50 [3] | Ki [3] | IC50 [4] | IC50 [5] | Ki [5]

COc1cc(NS(=O)(=O)c2ccc(N)cc2)nc(OC)n1 [SULFADIMETHOXINE]
Not Active: IC50 [1] | IC50 [2] | IC50 [3] | Ki [3] | IC50 [4] | IC50 [5] | Ki [5]

Cc1cc(C)nc(NS(=O)(=O)c2ccc(N)cc2)n1 [SULFAMETHAZINE]
Not Active: IC50 [1] | IC50 [2] | IC50 [3] | Ki [3] | IC50 [4] | IC50 [5] | Ki [5]

C[C@]1(Cn2ccnn2)[C@H](C(=O)O)N2C(=O)C[C@H]2S1(=O)=O [TAZOBACTAM]
Not Active: IC50 [1] | IC50 [2] | IC50 [3] | Ki [3] | IC50 [4] | IC50 [5] | Ki [5]

CN1C(C(=O)Nc2ccccn2)=C(O)c2sccc2S1(=O)=O [TENOXICAM]
Not Active: IC50 [1] | IC50 [2] | IC50 [3] | Ki [3] | IC50 [4] | IC50 [5] | Ki [5]

O=C1CCC(N2C(=O)c3ccccc3C2=O)C(=O)N1 (stereo not drawn) [THALIDOMIDE]
Not Active: IC50 [1] | IC50 [2] | IC50 [3] | Ki [3] | IC50 [4] | IC50 [5] | Ki [5]

Cc1cccc(Nc2ccncc2S(=O)(=O)NC(=O)NC(C)C)c1 [TORSEMIDE]
Not Active: IC50 [1] | IC50 [2] | IC50 [3] | Ki [3] | IC50 [4] | IC50 [5] | Ki [5]

CC(C)C[C@H](NC(=O)[C@@H](O)[C@H](N)Cc1ccccc1)C(=O)O [UBENIMEX]
Not Active: IC50 [1] | IC50 [2] | IC50 [3] | Ki [3] | IC50 [4] | IC50 [5] | Ki [5]

Cc1onc(-c2ccccc2)c1-c1ccc(S(N)(=O)=O)cc1 [VALDECOXIB]
Not Active: IC50 [1] | IC50 [2] | IC50 [3] | Ki [3] | IC50 [4] | IC50 [5] | Ki [5]

CC[C@]1(O)C[C@@H]2CN(CCc3c([nH]c4ccccc34)[C@@](C(=O)OC)(c3cc4c(cc3OC)N(C)[C@H]3[C@@](O)(C(=O)OC)[C@H](OC(C)=O)[C@]5(CC)C=CCN6CC[C@]43[C@@H]65)C2)C1 [VINBLASTINE]
Not Active: IC50 [1] | IC50 [2] | IC50 [3] | Ki [3] | IC50 [4] | IC50 [5] | Ki [5]

CC(=O)CC(c1ccccc1)c1c(O)c2ccccc2oc1=O (stereo not drawn) [WARFARIN]
Not Active: IC50 [1] | IC50 [2] | IC50 [3] | Ki [3] | IC50 [4] | IC50 [5] | Ki [5]
